Assay results as given in ChEMBL document CHEMBL5321278, “Discovery of Aminoratjadone Derivatives as Potent Noncovalent CRM1 Inhibitors” (J Med Chem, 2023).
pIC50, pKd: −log10 of the molar value. The source made the active and inactive calls. No cut-off for these calls is given here. Where a SMILES comes first, the peptide text is derived from it. The star is where a group is joined. Cbz = O=C(OCc1ccccc1)*

Key:
Exportin-1 [1] = target: T1, Exportin-1 (Homo sapiens, UniProt O14980); assay: Inhibition of CRM1 nuclear export in human HeLa cells assessed as CRM1 depletion at 1 uM measured after 6 hrs; format: cell-based
T1 sequence (O14980 whole entry): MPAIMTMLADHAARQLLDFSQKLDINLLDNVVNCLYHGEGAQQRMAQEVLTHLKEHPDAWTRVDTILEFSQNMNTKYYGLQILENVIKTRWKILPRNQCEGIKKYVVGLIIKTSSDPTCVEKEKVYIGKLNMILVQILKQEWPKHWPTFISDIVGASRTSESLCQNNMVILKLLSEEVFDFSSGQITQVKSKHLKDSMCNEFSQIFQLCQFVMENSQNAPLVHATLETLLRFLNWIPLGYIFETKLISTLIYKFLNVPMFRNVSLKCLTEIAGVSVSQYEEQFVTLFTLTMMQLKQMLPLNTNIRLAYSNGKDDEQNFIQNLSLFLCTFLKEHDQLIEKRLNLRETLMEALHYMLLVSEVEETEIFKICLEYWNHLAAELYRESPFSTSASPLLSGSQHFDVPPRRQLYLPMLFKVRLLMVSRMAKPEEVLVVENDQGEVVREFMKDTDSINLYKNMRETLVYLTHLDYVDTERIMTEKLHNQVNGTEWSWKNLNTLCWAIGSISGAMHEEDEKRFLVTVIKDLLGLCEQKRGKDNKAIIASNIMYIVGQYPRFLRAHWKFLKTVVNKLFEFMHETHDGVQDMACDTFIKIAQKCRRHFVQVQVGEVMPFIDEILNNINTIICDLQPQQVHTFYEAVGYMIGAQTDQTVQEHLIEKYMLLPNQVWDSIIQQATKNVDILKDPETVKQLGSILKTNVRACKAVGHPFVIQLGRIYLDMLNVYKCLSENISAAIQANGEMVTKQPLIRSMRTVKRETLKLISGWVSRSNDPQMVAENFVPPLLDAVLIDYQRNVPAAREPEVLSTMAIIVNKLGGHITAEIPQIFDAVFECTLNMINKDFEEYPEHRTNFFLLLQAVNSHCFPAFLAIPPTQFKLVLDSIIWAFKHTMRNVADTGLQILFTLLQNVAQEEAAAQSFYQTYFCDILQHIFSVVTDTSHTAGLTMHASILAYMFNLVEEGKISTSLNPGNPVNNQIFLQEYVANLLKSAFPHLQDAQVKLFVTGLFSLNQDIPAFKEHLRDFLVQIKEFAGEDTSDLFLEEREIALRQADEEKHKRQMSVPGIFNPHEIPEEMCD

Exportin-1 [2] = target: T1, Exportin-1; assay: Inhibition of CRM1 nuclear export in human HeLa cells assessed as CRM1 depletion at 10 uM measured after 6 hrs; format: cell-based
Exportin-1 [3] = target: T1, Exportin-1; assay: Inhibition of CRM1 (unknown origin) assessed as binding of GST-tagged NES peptide
Exportin-1 [4] = target: T1, Exportin-1; assay: Inhibition of CRM1 nuclear export in human HeLa cells assessed as CRM1 depletion at 50 uM measured after 6 hrs; format: cell-based
Exportin-1 [5] = target: T1, Exportin-1; assay: Inhibition of CRM1-mediated nuclear export in human HeLa cells expressing mCherry-tagged NES reporter at 1 uM incubated for 3 hrs by confocal microscopy analysis; format: cell-based
[6] = tested on: Exportin-1 (Homo sapiens), O14980 [C528S]; assay: Inhibition of CRM1 C528S mutant-mediated nuclear export in human HCT-116 cells assessed as inhibition of nuclear export of cargoes at 1 uM; format: cell-based
Chain of Exportin-1 (Homo sapiens), O14980 [C528S] (O14980 whole entry C528S): as the sequence (O14980 whole entry) above, with C528S counted along it

Exportin-1 [7] = target: T1, Exportin-1; assay: Non-covalent inhibition of CRM1 (unknown origin) assessed as reversal of GST-tagged NES peptide binding pretreated with CRM1 followed by compound addition and measured after 2 hrs
[8] = tested on: Exportin-1 (Homo sapiens), O14980 [C528S]; assay: Inhibition of CRM1 C528S mutant-mediated nuclear export in human HeLa cells expressing mCherry-tagged NES reporter at 1 uM incubated for 3 hrs by confocal microscopy analysis; format: cell-based
RKO [9] = assay: Cytotoxicity against human RKO cells assessed as reduction in cell viability incubated for 72 hrs by CCK-8 assay; format: functional, cell-based
RKO [10] = assay: Cytotoxicity against SiRNA mediated CRM1 knockdown human RKO cells assessed as reduction in cell viability at 0.3 to 1 uM incubated for 72 hrs by CCK-8 assay; format: functional, cell-based; conditions: dose 0.3-1 µM
Exportin-1 [11] = target: T1, Exportin-1; assay: Inhibition of CRM1-mediated nuclear export in human HeLa cells expressing mCherry-tagged NES reporter incubated for 3 hrs by confocal microscopy analysis; format: cell-based; conditions: for inhibition: dose 0.09-3 µM
HeLa [12] = assay: Downregulation of CRM1 mRNA expression in human HeLa cells at 9 uM incubated for 6 hrs; format: functional, cell-based
Exportin-1 [13] = target: T1, Exportin-1; assay: Non-covalent inhibition of CRM1 (unknown origin) assessed as reversal of GST-tagged NES peptide binding
Exportin-1 [14] = target: T1, Exportin-1; assay: Inhibition of CRM1-mediated nuclear export in human HCT-116 cells assessed as inhibition of nuclear export of cargoes at 1 uM; format: cell-based
HCT-116 [15] = assay: Cytotoxicity against SiRNA mediated CRM1 knockdown human HCT-116 cells assessed as reduction in cell viability at 0.3 to 1 uM incubated for 72 hrs by CCK-8 assay; format: functional, cell-based; conditions: dose 0.3-1 µM
HeLa [16] = assay: Downregulation of CRM1 expression in human HeLa cells at 9 uM incubated for 6 hrs by Western blot analysis; format: functional, cell-based
Exportin-1 [17] = target: T1, Exportin-1; assay: Inhibition of CRM1 nuclear export in human HeLa cells assessed as CRM1 depletion measured after 6 hrs; format: cell-based; conditions: for inhibition: dose 0.1-9 µM
HCT-116 [18] = assay: Cytotoxicity against human HCT-116 cells assessed as reduction in cell viability incubated for 72 hrs by CCK-8 assay; format: functional, cell-based; conditions: HCT-116, 72 h
Exportin-1 [19] = target: T1, Exportin-1; assay: Binding affinity to CRM1 (unknown origin) assessed as dissociation constant by microscale thermophoresis assay
RKO [20] = assay: Induction of apoptosis in human RKO cells assessed as necrotic at 0.5 uM measured after 24 hrs by AnnexinV-FITC/propidium iodide staining based flow cytometric analysis (reference value: 1%); format: functional
RKO [21] = assay: Induction of apoptosis in human RKO cells assessed as increase in cleaved PARP-1 level by Western blot analysis; format: functional, cell-based
RKO [22] = assay: Induction of apoptosis in human RKO cells assessed as late apoptotic at 0.5 uM measured after 24 hrs by AnnexinV-FITC/propidium iodide staining based flow cytometric analysis (reference value: 4.70%); format: functional
RKO [23] = assay: Induction of apoptosis in human RKO cells assessed as late apoptotic at 1 uM measured after 24 hrs by AnnexinV-FITC/propidium iodide staining based flow cytometric analysis (reference value: 4.70%); format: functional
HCT-116 [24] = assay: Induction of apoptosis in human HCT-116 cells assessed as early apoptotic at 0.5 uM measured after 24 hrs by AnnexinV-FITC/propidium iodide staining based flow cytometric analysis (reference value: 3.55%); format: functional
HCT-116 [25] = assay: Induction of apoptosis in human HCT-116 cells assessed as necrotic at 0.5 uM measured after 24 hrs by AnnexinV-FITC/propidium iodide staining based flow cytometric analysis (reference value: 2.22%); format: functional
HCT-116 [26] = assay: Induction of apoptosis in human HCT-116 cells assessed as viable cells at 0.5 uM measured after 24 hrs by AnnexinV-FITC/propidium iodide staining based flow cytometric analysis (reference value: 89.32%); format: functional; conditions: read-out: Activity
HCT-116 [27] = assay: Induction of apoptosis in human HCT-116 cells assessed as late apoptotic at 0.5 uM measured after 24 hrs by AnnexinV-FITC/propidium iodide staining based flow cytometric analysis (reference value: 4.91%); format: functional
HCT-116 [28] = assay: Induction of apoptosis in human HCT-116 cells assessed as viable cells at 1 uM measured after 24 hrs by AnnexinV-FITC/propidium iodide staining based flow cytometric analysis (reference value: 89.32%); format: functional; conditions: read-out: Activity
RKO [29] = assay: Inhibition of colony formation in human RKO cells assessed as decrease in colonies upto 0.5 uM incubated for 72 hrs by crystal violet staining based assay; format: functional, cell-based
HCT-116 [30] = assay: Induction of apoptosis in human HCT-116 cells assessed as early apoptotic at 1 uM measured after 24 hrs by AnnexinV-FITC/propidium iodide staining based flow cytometric analysis (reference value: 3.55%); format: functional
RKO [31] = assay: Induction of apoptosis in human RKO cells assessed as necrotic at 1 uM measured after 24 hrs by AnnexinV-FITC/propidium iodide staining based flow cytometric analysis (reference value: 1%); format: functional
HCT-116 [32] = assay: Induction of apoptosis in human HCT-116 cells assessed as increase in cleaved PARP-1 level by Western blot analysis; format: functional, cell-based
HCT-116 [33] = assay: Induction of apoptosis in human HCT-116 cells assessed as necrotic at 1 uM measured after 24 hrs by AnnexinV-FITC/propidium iodide staining based flow cytometric analysis (reference value: 2.22%); format: functional
HCT-116 [34] = assay: Induction of apoptosis in human HCT-116 cells assessed as late apoptotic at 1 uM measured after 24 hrs by AnnexinV-FITC/propidium iodide staining based flow cytometric analysis (reference value: 4.91%); format: functional
HCT-116 [35] = assay: Inhibition of colony formation in human HCT-116 cells assessed as decrease in colonies upto 0.5 uM incubated for 72 hrs by crystal violet staining based assay; format: functional, cell-based
RKO [36] = assay: Induction of apoptosis in human RKO cells assessed as viable cells at 1 uM measured after 24 hrs by AnnexinV-FITC/propidium iodide staining based flow cytometric analysis (reference value: 92.51%); format: functional; conditions: read-out: Activity
Exportin-1 [37] = target: T1, Exportin-1; assay: Binding affinity to CRM1 in human HCT-116 cells assessed as thermal stabilization at 50 uM at 50 to 68 degreeC incubated for 3 mins by […] analysis; format: cell-based
RKO [38] = assay: Induction of apoptosis in human RKO cells assessed as early apoptotic at 1 uM measured after 24 hrs by AnnexinV-FITC/propidium iodide staining based flow cytometric analysis (reference value: 1.79%); format: functional
RKO [39] = assay: Induction of apoptosis in human RKO cells assessed as early apoptotic at 0.5 uM measured after 24 hrs by AnnexinV-FITC/propidium iodide staining based flow cytometric analysis (reference value: 1.79%); format: functional
RKO [40] = assay: Induction of apoptosis in human RKO cells assessed as viable cells at 0.5 uM measured after 24 hrs by AnnexinV-FITC/propidium iodide staining based flow cytometric analysis (reference value: 92.51%); format: functional; conditions: read-out: Activity

O=C(/C=C\n1cnc(-c2cc(C(F)(F)F)cc(C(F)(F)F)c2)n1)NNc1cnccn1
inhibition (Exportin-1 [1]): inactive

CCN(CC)CCCC(C)Nc1ccnc2cc(Cl)ccc12 (configuration not stated)
inhibition (Exportin-1 [2]): Active

C/C=C/[C@@H]1O[C@H]([C@@H](N)/C=C/C=C(\C)C[C@@H](C)/C=C(C)\C=C\[C@H](O)C[C@@H](CC(=O)NCCO)NCCO)C[C@H](O)[C@@H]1C
inhibition (Exportin-1 [3]): inactive | inhibition (Exportin-1 [1]): inactive

CC(C)C[C@@H](C=O)NC(=O)[C@H](CC(C)C)NC(=O)[C@H](CC(C)C)NC(=O)OCc1ccccc1 (Cbz-Leu-Leu-Leu-aldehyde)
inhibition (Exportin-1 [4]): Active

C/C=C/[C@@H]1O[C@H]([C@@H](N)/C=C/C=C(\C)C[C@@H](C)/C=C(C)\C=C\[C@H](O)C[C@H](N)CC(N)=O)C[C@H](O)[C@@H]1C
inhibition (Exportin-1 [3]): inactive | inhibition (Exportin-1 [1]): inactive | inhibition (Exportin-1 [5]): inactive

C/C=C/[C@@H]1O[C@H]([C@@H](N)/C=C/C=C(\C)C[C@@H](C)/C=C(C)\C=C\[C@H](O)C[C@H](N)CC(=O)OC)C[C@H](O)[C@@H]1C
inhibition [6]: inactive | inhibition (Exportin-1 [7]): Active | inhibition [8]: Active | pIC50 (RKO [9]): 6.52 | Activity (RKO [10]): Active | pIC50 (Exportin-1 [11]): 6.47 | inhibition (Exportin-1 [11]): Dose-Dependent Effect | inhibition (Exportin-1 [3]): Active | Activity (HeLa [12]): inactive | inhibition (Exportin-1 [13]): Active | inhibition (Exportin-1 [14]): Active | Activity (HCT-116 [15]): Active | Activity (HeLa [16]): inactive | pIC50 (Exportin-1 [17]): 6.26 | inhibition (Exportin-1 [17]): Active | pIC50 (HCT-116 [18]): 6.49

C/C=C/[C@@H]1O[C@H]([C@H](N)/C=C/C=C(\C)C[C@@H](C)/C=C(C)\C=C\[C@H](O)C[C@H](N)CC(=O)O)C[C@H](O)[C@@H]1C
pKd (Exportin-1 [19]): 5.23

C/C=C/[C@@H]1O[C@H]([C@H](N)/C=C/C=C(\C)C[C@@H](C)/C=C(C)\C=C\[C@H](O)C[C@H](N)CC(=O)OC)C[C@H](O)[C@@H]1C
inhibition [6]: inactive | Activity (RKO [20]): 6.09% | Activity (RKO [21]): Active | inhibition [8]: Active | Activity (RKO [22]): 11.78% | pIC50 (RKO [9]): 6.72 | Activity (RKO [23]): 18.43% | Activity (HCT-116 [24]): 5.73% | Activity (HCT-116 [25]): 3.75% | viability at 0.5 µM (HCT-116 [26]): 78% | Activity (HCT-116 [27]): 12.47% | Activity (RKO [10]): Active | pIC50 (Exportin-1 [11]): 6.55 | inhibition (Exportin-1 [11]): Dose-Dependent Effect | inhibition (Exportin-1 [3]): Active | viability at 1 µM (HCT-116 [28]): 62.4% | inhibition (RKO [29]): Active | Activity (HeLa [12]): inactive | Activity (HCT-116 [30]): 4.32% | inhibition (Exportin-1 [13]): Active | inhibition (Exportin-1 [14]): Active | Activity (RKO [31]): 7.93% | Activity (HCT-116 [32]): Active | Activity (HCT-116 [15]): Active | Activity (HCT-116 [33]): 8.17% | Activity (HCT-116 [34]): 25.08% | Activity (HeLa [16]): inactive | pIC50 (Exportin-1 [17]): 6.57 | inhibition (Exportin-1 [17]): Active | pIC50 (HCT-116 [18]): 6.92 | inhibition (HCT-116 [35]): Active | viability at 1 µM (RKO [36]): 70.9% | Activity (Exportin-1 [37]): Active | pKd (Exportin-1 [19]): 5.34 | Activity (RKO [38]): 2.78% | Activity (RKO [39]): 3.34% | viability at 0.5 µM (RKO [40]): 78.8%
